Data reported in patent US20020137929A1, “1 - (3-heterocyclylphenyl) isothiourea, -isourea, -guanidine and -amidine herbicidal agents” (Intellectual Property Department, BASF Aktiengesellschaft, priority 1998, published 2002).

Columns and labels:
ECHCG (Barnyardgrass) = assay: Postemergence herbicidal evaluation; type: in vivo, Echinochloa crus-galli; conditions: postemergence
In short: (§1)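 Visual 0–9 rating versus control (stand, vigor, malformation, size, chlorosis, overall appearance), taken four to five weeks post-spray. Two-week-old seedlings received roughly 0.0156–0.500 kg/ha active in acetone/water (50/50) with 0.5% TWEEN 20 via nozzle at 40 psi.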

ABUTH (Velvetleaf) = assay: Postemergence herbicidal evaluation; type: in vivo, Abutilon theophrasti; conditions: postemergence
In short: as §1

ZEAMX (Corn, Field) = assay: Postemergence herbicidal evaluation; type: in vivo, Zea mays; conditions: postemergence
In short: as §1

[1] = system: GLXMAW (Soybean, Williams); assay: Postemergence herbicidal evaluation; type: in vivo, Glycine max, (L.) Merr. cv Williams; conditions: postemergence
In short: as §1

CYPSE (Flatsedge) [2] = assay: Postemergence weed control under flooded paddy conditions; type: in vivo, Cyperus serotinus; conditions: postemergence weeds, rated 3 to 4 weeks after treatment
In short: (§2)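 With weeds 3 to 5 cm tall and rice at the 1.5 to 2.5 leaf stage, containers were flooded and water held 1.5 to 3 cm above soil. Compounds in 50/50 v/v aqueous/acetone went into the flood water at about 0.0313 to 0.500 kg/ha a.i. Effects were visually rated 0–9 against controls after three to four weeks in the greenhouse.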

CASOB (Sicklepod) = assay: Preemergence herbicidal evaluation; type: in vivo, Cassia obtusifolia; conditions: rated 4-5 weeks after treatment
In short: (§3)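 Seeds were planted in potting soil in cups, then sprayed preemergence with the test compound in aqueous acetone at about 0.0156 to 0.500 kg per hectare. Cups were kept under greenhouse conditions and visually rated 4–5 weeks after treatment on a 0–9 scale against an untreated control.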

ORYSAT (Rice, Tebonnet) = assay: Postemergence herbicidal evaluation; type: in vivo, Oryza sativa, (L.) Tebonnet; conditions: postemergence
In short: as §1

CYPIR (Rice Flatsedge) = assay: Postemergence weed control under flooded paddy conditions; type: in vivo, Cyperus iria; conditions: postemergence weeds, rated 3 to 4 weeks after treatment
In short: as §2

[3] = system: CHEAL (Lambsquarters, Common); assay: Preemergence herbicidal evaluation; type: in vivo, Chenopodium album; conditions: rated 4-5 weeks after treatment
In short: as §3

GALAP (Galium) = assay: Preemergence herbicidal evaluation; type: in vivo, Galium aparine; conditions: rated 4-5 weeks after treatment
In short: as §3

AMBEL (Ragweed, Common) [4] = assay: Postemergence herbicidal evaluation; type: in vivo, Ambrosia artemisifolia; conditions: postemergence
In short: as §1

[5] = system: CHEAL (Lambsquarters, Common); assay: Postemergence herbicidal evaluation; type: in vivo, Chenopodium album; conditions: postemergence
In short: as §1

CYPSE (Flatsedge) [6] = assay: Preemergence weed control under flooded paddy conditions; type: in vivo, Cyperus serotinus; conditions: rated 3-4 weeks after treatment
In short: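 Values are visual 0-9 scores against a control for a preemergence application into paddy flood water at about 0.0313 to 0.500 kg/ha. Greenhouse duration was three to four weeks.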

AMBEL (Ragweed, Common) [7] = assay: Preemergence herbicidal evaluation; type: in vivo, Ambrosia artemisifolia; conditions: rated 4-5 weeks after treatment
In short: as §3

COC(=O)[C@@H](Cc1ccccc1)N1C(=O)CSC1=Nc1cc(-n2c(=O)cc(C(F)(F)F)n(C)c2=O)c(F)cc1Cl [Compound 74, Methyl α-benzyl-2-{{2-chloro-5-[3,6-dihydro-3-methyl-2,6-dioxo-4-(trifluoromethyl)-1(2H)-pyrimidinyl]-4-fluorophenyl}imino}-4-oxo-3-thiazolidineacetate, D-]
ECHCG herbicidal rating (ECHCG (Barnyardgrass); rate 0.0158 kg/ha): 1.0
ECHCG herbicidal rating (ECHCG (Barnyardgrass); rate 0.0315 kg/ha): 1.0
ECHCG herbicidal rating (ECHCG (Barnyardgrass); rate 0.0630 kg/ha): 1.0
ABUTH herbicidal rating (ABUTH (Velvetleaf); rate 0.0158 kg/ha): 9.0
ABUTH herbicidal rating (ABUTH (Velvetleaf); rate 0.0315 kg/ha): 9.0
ABUTH herbicidal rating (ABUTH (Velvetleaf); rate 0.0630 kg/ha): 9.0
ZEAMX herbicidal rating (ZEAMX (Corn, Field); rate 0.0158 kg/ha): 4.5
ZEAMX herbicidal rating (ZEAMX (Corn, Field); rate 0.0315 kg/ha): 5.0
ZEAMX herbicidal rating (ZEAMX (Corn, Field); rate 0.0630 kg/ha): 5.5
GLXMAW herbicidal rating ([1]; rate 0.0158 kg/ha): 5.5
GLXMAW herbicidal rating ([1]; rate 0.0315 kg/ha): 5.0
GLXMAW herbicidal rating ([1]; rate 0.0630 kg/ha): 6.5
Herbicidal rating CYPSE (CYPSE (Flatsedge) [2]; Rate 0.0313 kg/ha): 0.0
Herbicidal rating CYPSE (CYPSE (Flatsedge) [2]; Rate 0.0625 kg/ha): 5.0
Herbicidal rating CYPSE (CYPSE (Flatsedge) [2]; Rate 0.1250 kg/ha): 5.0
Herbicidal rating CYPSE (CYPSE (Flatsedge) [2]; Rate 0.2500 kg/ha): 9.0
Preemergence herbicidal rating CASOB (CASOB (Sicklepod); rate 0.0156 kg/ha): 0.0
Preemergence herbicidal rating CASOB (CASOB (Sicklepod); rate 0.0313 kg/ha): 0.0
Preemergence herbicidal rating CASOB (CASOB (Sicklepod); rate 0.0625 kg/ha): 0.0
Preemergence herbicidal rating CASOB (CASOB (Sicklepod); rate 0.1250 kg/ha): 0.0
Preemergence herbicidal rating CASOB (CASOB (Sicklepod); rate 0.2500 kg/ha): 0.0
ORYSAT herbicidal rating (ORYSAT (Rice, Tebonnet); rate 0.0158 kg/ha): 3.5
ORYSAT herbicidal rating (ORYSAT (Rice, Tebonnet); rate 0.0315 kg/ha): 4.5
ORYSAT herbicidal rating (ORYSAT (Rice, Tebonnet); rate 0.0630 kg/ha): 5.5
Herbicidal rating CYPIR (CYPIR (Rice Flatsedge); Rate 0.0313 kg/ha): 0.0
Herbicidal rating CYPIR (CYPIR (Rice Flatsedge); Rate 0.0625 kg/ha): 0.0
Herbicidal rating CYPIR (CYPIR (Rice Flatsedge); Rate 0.1250 kg/ha): 0.0
Herbicidal rating CYPIR (CYPIR (Rice Flatsedge); Rate 0.2500 kg/ha): 0.0
Preemergence herbicidal rating CHEAL ([3]; rate 0.0156 kg/ha): 9.0
Preemergence herbicidal rating CHEAL ([3]; rate 0.0313 kg/ha): 9.0
Preemergence herbicidal rating CHEAL ([3]; rate 0.0625 kg/ha): 9.0
Preemergence herbicidal rating CHEAL ([3]; rate 0.1250 kg/ha): 9.0
Preemergence herbicidal rating CHEAL ([3]; rate 0.2500 kg/ha): 9.0
Preemergence herbicidal rating GALAP (GALAP (Galium); rate 0.0156 kg/ha): 0.0
Preemergence herbicidal rating GALAP (GALAP (Galium); rate 0.0313 kg/ha): 0.0
Preemergence herbicidal rating GALAP (GALAP (Galium); rate 0.0625 kg/ha): 0.0
Preemergence herbicidal rating GALAP (GALAP (Galium); rate 0.1250 kg/ha): 0.0
Preemergence herbicidal rating GALAP (GALAP (Galium); rate 0.2500 kg/ha): 9.0
AMBEL herbicidal rating (AMBEL (Ragweed, Common) [4]; rate 0.0158 kg/ha): 9.0
AMBEL herbicidal rating (AMBEL (Ragweed, Common) [4]; rate 0.0315 kg/ha): 9.0
AMBEL herbicidal rating (AMBEL (Ragweed, Common) [4]; rate 0.0630 kg/ha): 9.0
CHEAL herbicidal rating ([5]; rate 0.0158 kg/ha): 9.0
CHEAL herbicidal rating ([5]; rate 0.0315 kg/ha): 9.0
CYPSE herbicidal effect rating (CYPSE (Flatsedge) [6]; 0.0313 kg/ha): 0.0
CYPSE herbicidal effect rating (CYPSE (Flatsedge) [6]; 0.0625 kg/ha): 5.0
CYPSE herbicidal effect rating (CYPSE (Flatsedge) [6]; 0.1250 kg/ha): 5.0
CYPSE herbicidal effect rating (CYPSE (Flatsedge) [6]; 0.2500 kg/ha): 9.0
Preemergence herbicidal rating AMBEL (AMBEL (Ragweed, Common) [7]; rate 0.0156 kg/ha): 0.0
Preemergence herbicidal rating AMBEL (AMBEL (Ragweed, Common) [7]; rate 0.0313 kg/ha): 1.0
Preemergence herbicidal rating AMBEL (AMBEL (Ragweed, Common) [7]; rate 0.0625 kg/ha): 3.0
Preemergence herbicidal rating AMBEL (AMBEL (Ragweed, Common) [7]; rate 0.1250 kg/ha): 9.0
Preemergence herbicidal rating AMBEL (AMBEL (Ragweed, Common) [7]; rate 0.2500 kg/ha): 9.0

CCOC(=O)[C@H](Cc1ccccc1)N1C(=O)CSC1=Nc1cc(-n2c(=O)cc(C(F)(F)F)n(C)c2=O)c(F)cc1Cl [Compound 80, Ethyl α-benzyl-2-{{2-chloro-5-[3,6-dihydro-3-methyl-2,6-dioxo-4-(trifluoromethyl)-1(2H)-pyrimidinyl]-4-fluorophenyl}imino}-4-oxo-3-thiazolidineacetate, L-]
ECHCG herbicidal rating (ECHCG (Barnyardgrass); rate 0.0158 kg/ha): 1.0
ECHCG herbicidal rating (ECHCG (Barnyardgrass); rate 0.0315 kg/ha): 2.0
ECHCG herbicidal rating (ECHCG (Barnyardgrass); rate 0.0630 kg/ha): 3.0
ABUTH herbicidal rating (ABUTH (Velvetleaf); rate 0.0158 kg/ha): 9.0
ABUTH herbicidal rating (ABUTH (Velvetleaf); rate 0.0315 kg/ha): 9.0
ABUTH herbicidal rating (ABUTH (Velvetleaf); rate 0.0630 kg/ha): 9.0
ZEAMX herbicidal rating (ZEAMX (Corn, Field); rate 0.0158 kg/ha): 5.0
ZEAMX herbicidal rating (ZEAMX (Corn, Field); rate 0.0315 kg/ha): 5.0
ZEAMX herbicidal rating (ZEAMX (Corn, Field); rate 0.0630 kg/ha): 5.5
GLXMAW herbicidal rating ([1]; rate 0.0158 kg/ha): 4.5
GLXMAW herbicidal rating ([1]; rate 0.0315 kg/ha): 5.5
GLXMAW herbicidal rating ([1]; rate 0.0630 kg/ha): 6.5
Herbicidal rating CYPSE (CYPSE (Flatsedge) [2]; Rate 0.0313 kg/ha): 3.0
Herbicidal rating CYPSE (CYPSE (Flatsedge) [2]; Rate 0.0625 kg/ha): 3.0
Herbicidal rating CYPSE (CYPSE (Flatsedge) [2]; Rate 0.1250 kg/ha): 3.0
Herbicidal rating CYPSE (CYPSE (Flatsedge) [2]; Rate 0.2500 kg/ha): 4.0
Preemergence herbicidal rating CASOB (CASOB (Sicklepod); rate 0.0156 kg/ha): 1.0
Preemergence herbicidal rating CASOB (CASOB (Sicklepod); rate 0.0313 kg/ha): 0.0
Preemergence herbicidal rating CASOB (CASOB (Sicklepod); rate 0.0625 kg/ha): 0.0
Preemergence herbicidal rating CASOB (CASOB (Sicklepod); rate 0.1250 kg/ha): 9.0
Preemergence herbicidal rating CASOB (CASOB (Sicklepod); rate 0.2500 kg/ha): 9.0
ORYSAT herbicidal rating (ORYSAT (Rice, Tebonnet); rate 0.0158 kg/ha): 3.5
ORYSAT herbicidal rating (ORYSAT (Rice, Tebonnet); rate 0.0315 kg/ha): 3.5
ORYSAT herbicidal rating (ORYSAT (Rice, Tebonnet); rate 0.0630 kg/ha): 4.0
Herbicidal rating CYPIR (CYPIR (Rice Flatsedge); Rate 0.0313 kg/ha): 5.0
Herbicidal rating CYPIR (CYPIR (Rice Flatsedge); Rate 0.0625 kg/ha): 7.0
Herbicidal rating CYPIR (CYPIR (Rice Flatsedge); Rate 0.1250 kg/ha): 7.0
Herbicidal rating CYPIR (CYPIR (Rice Flatsedge); Rate 0.2500 kg/ha): 7.0
Preemergence herbicidal rating CHEAL ([3]; rate 0.0156 kg/ha): 7.0
Preemergence herbicidal rating CHEAL ([3]; rate 0.0313 kg/ha): 9.0
Preemergence herbicidal rating CHEAL ([3]; rate 0.0625 kg/ha): 9.0
Preemergence herbicidal rating CHEAL ([3]; rate 0.1250 kg/ha): 9.0
Preemergence herbicidal rating CHEAL ([3]; rate 0.2500 kg/ha): 9.0
Preemergence herbicidal rating GALAP (GALAP (Galium); rate 0.0156 kg/ha): 0.0
Preemergence herbicidal rating GALAP (GALAP (Galium); rate 0.0313 kg/ha): 0.0
Preemergence herbicidal rating GALAP (GALAP (Galium); rate 0.0625 kg/ha): 0.0
Preemergence herbicidal rating GALAP (GALAP (Galium); rate 0.1250 kg/ha): 4.0
Preemergence herbicidal rating GALAP (GALAP (Galium); rate 0.2500 kg/ha): 4.0
AMBEL herbicidal rating (AMBEL (Ragweed, Common) [4]; rate 0.0158 kg/ha): 9.0
AMBEL herbicidal rating (AMBEL (Ragweed, Common) [4]; rate 0.0315 kg/ha): 9.0
AMBEL herbicidal rating (AMBEL (Ragweed, Common) [4]; rate 0.0630 kg/ha): 7.0
CHEAL herbicidal rating ([5]; rate 0.0158 kg/ha): 9.0
CHEAL herbicidal rating ([5]; rate 0.0315 kg/ha): 9.0
CHEAL herbicidal rating ([5]; rate 0.0630 kg/ha): 9.0
CYPSE herbicidal effect rating (CYPSE (Flatsedge) [6]; 0.0313 kg/ha): 3.0
CYPSE herbicidal effect rating (CYPSE (Flatsedge) [6]; 0.0625 kg/ha): 3.0
CYPSE herbicidal effect rating (CYPSE (Flatsedge) [6]; 0.1250 kg/ha): 3.0
CYPSE herbicidal effect rating (CYPSE (Flatsedge) [6]; 0.2500 kg/ha): 4.0
Preemergence herbicidal rating AMBEL (AMBEL (Ragweed, Common) [7]; rate 0.0313 kg/ha): 0.0
Preemergence herbicidal rating AMBEL (AMBEL (Ragweed, Common) [7]; rate 0.0625 kg/ha): 2.0
Preemergence herbicidal rating AMBEL (AMBEL (Ragweed, Common) [7]; rate 0.1250 kg/ha): 9.0
Preemergence herbicidal rating AMBEL (AMBEL (Ragweed, Common) [7]; rate 0.2500 kg/ha): 7.0
